This is an account of results in ChEMBL document CHEMBL1201862, “PubChem BioAssay data set” (2004).

Among the test systems are DLD-1; DMS-273; HOP-18; M19-MEL; KM-20L2; DMS-114; XF498; SNB-78; RXF 631.
What all share (assay): NCI tumour cell line growth inhibition, 48 h

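Protocol summary: plate cells (96-well), add compound at 5 concentrations, incubate 48 h, interpolate endpoints linearly. The concentration for 50% growth inhibition is given as GI50.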 The source made the active and inactive calls. Rule as the data show it: active = GI50 up to about 1.1 µM and inactive = higher.

On to `COc1ccc(/C=C\c2cc(OC)c(OC)c(OC)c2)cc1`, for which the GI50 was 0.0004 µM (active) with DLD-1; 0.000273 µM (active) with DMS-273; 0.973 µM (active) in the assay on HOP-18; < 0.01 µM (active) with M19-MEL; 0.000428 µM (active) in the assay on KM-20L2; 0.0013 µM (active) with DMS-114. Also, the GI50 in the assay with XF498 was 0.000741 µM (active); in the assay with SNB-78, 0.000116 µM (active); with RXF 631, < 0.01 µM (active).

Regarding `Cc1n[nH]c(=S)n(C)c1=S`, the GI50 in the assay with DLD-1 is > 100 µM (inactive); in the assay with DMS-273, > 100 µM (inactive); in the assay with HOP-18, 27.2 µM (inactive); with M19-MEL it was > 100 µM (inactive); with KM-20L2 it was > 100 µM (inactive); in the assay on DMS-114, > 100 µM (inactive). In addition, the GI50 in the assay with XF498, in the assay with SNB-78 and in the assay with RXF 631 was > 100 µM (inactive) in each case.
